By IC50 is commonly meant the midpoint of a concentration-inhibition curve.

Bounds are passed on as bounds.

One experiment deals with T1, human EHMT1 982-1266 (Homo sapiens, UniProt Q9H9B1).
T1 sequence (Q9H9B1 982-1266): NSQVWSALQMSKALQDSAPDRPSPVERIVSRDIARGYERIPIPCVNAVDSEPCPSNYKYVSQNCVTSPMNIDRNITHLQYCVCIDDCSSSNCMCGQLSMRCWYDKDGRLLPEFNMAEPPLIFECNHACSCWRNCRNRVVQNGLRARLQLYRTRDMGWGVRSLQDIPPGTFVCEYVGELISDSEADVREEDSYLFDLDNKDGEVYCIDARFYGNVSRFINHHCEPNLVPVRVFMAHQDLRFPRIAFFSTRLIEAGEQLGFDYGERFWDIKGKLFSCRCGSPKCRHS
Kind of experiment: EHMT1 enzyme assay on histone peptide substrate (3H-SAM SPA). To be noted: EHMT1 IC50, recombinant human EHMT1 982-1266, histone peptide substrate.

The next experiment deals with H3K9me2 in HCT116 cells. Kind of experiment: HCT116 H3K9me2 in-cell western assay. The class given is cell-based. To be noted: Homo sapiens, HCT-116, 72 h, HCT116 cells, 72 hours incubation; read-out: H3K9me2 ICW IC50. An excerpt: HCT116 cell line was purchased from ATCC (Manassas, VA, USA). […] Penicillin-Streptomycin and heat inactivated fetal bovine serum were purchased from Hyclone (Logan, UT, USA). DPBS, Corning^R were purchased from VWR (Radnor, PA, USA). Triton′ X-100 was purchased from Sigma (St. Louis, MO, USA). Intercept blocking buffer, DRAQ5, Licor Odyssey Infrared Scanner were purchased from Licor Biosciences (Lincoln, NB, USA). Plate washer was purchased from BioTek (Winooski, VT, USA). […] 16% Paraformaldehyde was purchased from Electron Microscopy Sciences (Hatfield, PA, USA). HCT116 cells were maintained in complete growth medium (RPMI supplemented with 10% heat inactivated fetal bovine serum, 1% Penicillin-Streptomycin) and cultured at 37° C. under 5% CO2. N^2-(4-methoxy-3-(3-(pyrrolidin-1-yl)propoxy)phenyl)-N^4,6-dimethyl]pyrimidine-2,4-diamine (synthesis disclosed in International Application WO2017181177A1) was used as a control compound.
HCT116 cells (ATCC) were trypsinized, counted and seeded in assay medium (RPMI supplemented with 10% heat inactivated fetal bovine serum, 1% Penicillin-Streptomycin) at a concentration of 2,000 cells per well to a 384-well cell culture plate with compounds in 50 μl per well. Plates were incubated with at 37° C. under 5% CO2 for 72 hours. After the incubation, 50 μl per well of 8% paraformaldehyde in PBS was added to the plates and incubated at room temperature for 20 minutes. Plates were transferred to a BioTek (EL406) plate washer and washed 5 times with 110 μl per well of wash buffer (1×PBS containing 0.1% Triton X-100). The plates were next blocked with 50 μl of Intercept blocking buffer for 1 hour at room temperature. Blocking buffer was removed and 30 μl per well of monoclonal primary antibody of H3K9me2 (CST) diluted 1:200 in Intercept blocking buffer were added and plates were incubated overnight at 4° C. The plates were then washed 5 times with 110 μl per well of wash buffer (1×PBS containing 0.1% Triton X-100). Next 30 μl per well of secondary was added (1:400 800 CW goat anti-rabbit IgG in blocking buffer) with 1:1000 DRAQ5 in blocking buffer and incubated for 2 hours at room temperature. The plates were washed 5 times with 110 μl per well of wash buffer (1×PBS containing 0.1% Triton X-100) then with 100 μl per well of water once. Plates were allowed to dry at room temperature then imaged on a Licor Odyssey Infrared Scanner which measured integrated intensity at 700 nm and 800 nm wavelength. Both 700 and 800 channels were scanned.
The average of the ratio values (800 nm/700 nm) for each well was calculated and used to determine the percentage for each test well in the plate. Compounds were serially diluted two-fold in 0.1% DMSO for a total of 10 test concentrations beginning at 10 μM. IC50 curves were generated using duplicate wells per concentration of compound. […] IC50 values were calculated using a non-linear regression of Prism.

The target of the next experiment is T2, human EHMT2 913-1193 (Homo sapiens, UniProt Q96KQ7).
T2 sequence (Q96KQ7 913-1193): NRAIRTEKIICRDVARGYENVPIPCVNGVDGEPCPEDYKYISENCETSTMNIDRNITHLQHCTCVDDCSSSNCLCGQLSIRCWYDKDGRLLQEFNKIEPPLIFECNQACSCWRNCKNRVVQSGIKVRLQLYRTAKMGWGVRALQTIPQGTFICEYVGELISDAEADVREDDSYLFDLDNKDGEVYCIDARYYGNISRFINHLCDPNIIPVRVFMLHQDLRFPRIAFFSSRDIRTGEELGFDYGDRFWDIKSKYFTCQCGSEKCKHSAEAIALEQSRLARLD
In words: EHMT2 enzyme assay on histone peptide substrate (3H-SAM SPA). To be noted: EHMT2 IC50, recombinant human EHMT2 913-1193, histone peptide substrate.

In the case of `CNc1cc(C)nc(Nc2cc(OCCCN3CCCC3)c3occc3c2)n1` [Compound 102, N4,6-dimethyl-N2-[7-(3-pyrrolidin-1-ylpropoxy)benzofuran-5-yl]pyrimidine-2,4-diamine], the IC50 on human EHMT1 982-1266 was in the range of 100 to 500 nM; in the experiment on H3K9me2 in HCT116 cells it was 500 to 2000 nM; on human EHMT2 913-1193 it was 500 to 2000 nM.
As to `CNc1cc(C2CCCCC2)nc(Nc2cc3c(c(OCCCN4CCCC4)c2)OCC3)n1` [Compound 104, 6-cyclohexyl-N4-methyl-N2-[7-(3-pyrrolidin-1-ylpropoxy)-2,3-dihydrobenzofuran-5-yl]pyrimidine-2,4-diamine], the IC50 at human EHMT1 982-1266, in the experiment with H3K9me2 in HCT116 cells and on human EHMT2 913-1193 was above 2000 nM throughout.
Regarding `CNc1cc(C)nc(Nc2cc3c(c(C4CCCNCC4)c2)OCC3)n1` (stereo not drawn) [Compound 106, N2-[7-(azepan-4-yl)-2,3-dihydrobenzofuran-5-yl]-N4,6-dimethyl-pyrimidine-2,4-diamine], the IC50 at human EHMT1 982-1266 was in the range of 500 to 2000 nM; in the experiment on H3K9me2 in HCT116 cells, 100 to 500 nM; at human EHMT2 913-1193 it was 500 to 2000 nM.
In the case of `CNc1cc(C)nc(Nc2cc3c(c(C4CCCN(C)CC4)c2)OCC3)n1` (stereo not drawn) [Compound 107, N4,6-dimethyl-N2-[7-(1-methylazepan-4-yl)-2,3-dihydrobenzofuran-5-yl]pyrimidine-2,4-diamine], the IC50 on human EHMT1 982-1266 was in the range of 100 to 500 nM; in the experiment with H3K9me2 in HCT116 cells, 100 to 500 nM; on human EHMT2 913-1193, 500 to 2000 nM.
For the compound `CNc1nc(Nc2cc3c(c(OCCCN4CCCC4)c2)OCC3)nc(C)c1F` [Compound 108, 5-fluoro-N4,6-dimethyl-N2-[7-(3-pyrrolidin-1-ylpropoxy)-2,3-dihydrobenzofuran-5-yl]pyrimidine-2,4-diamine], the IC50 on human EHMT1 982-1266, in the experiment on H3K9me2 in HCT116 cells and at human EHMT2 913-1193 was above 2000 nM each time.
For the compound `CNc1nc(Nc2cc(OCCCN3CCCC3)c3occc3c2)nc(C)c1F` [Compound 109, 5-fluoro-N4,6-dimethyl-N2-[7-(3-pyrrolidin-1-ylpropoxy)benzofuran-5-yl]pyrimidine-2,4-diamine], the IC50 at human EHMT1 982-1266, in the experiment on H3K9me2 in HCT116 cells and on human EHMT2 913-1193 was above 2000 nM throughout.
On to `CNc1cc(C)nc(Nc2cc3c(c(OCCN4CCCC4)c2)OCC3)n1` [Compound 112, N4,6-dimethyl-N2-[7-(2-pyrrolidin-1-ylethoxy)-2,3-dihydrobenzofuran-5-yl]pyrimidine-2,4-diamine], for which the results for the IC50 on human EHMT1 982-1266, with H3K9me2 in HCT116 cells and at human EHMT2 913-1193 were 100 to 500 nM, 500 to 2000 nM and above 2000 nM, respectively.
Take `CNc1cc(C)nc(Nc2cc3c(c(OCCCN4CCCC4)c2)OCC(=O)N3)n1` [Compound 114]: the IC50 at human EHMT1 982-1266, in the experiment with H3K9me2 in HCT116 cells and at human EHMT2 913-1193 was above 2000 nM each time.
As to `Cc1cc(N)nc(Nc2cc3c(c(OCCCN4CCCC4)c2)OCC3)n1` [Compound 115, 6-methyl-N2-[7-(3-pyrrolidin-1-ylpropoxy)-2,3-dihydrobenzofuran-5-yl]pyrimidine-2,4-diamine], the IC50 is above 2000 nM at human EHMT1 982-1266, 500 to 2000 nM with H3K9me2 in HCT116 cells and above 2000 nM on human EHMT2 913-1193.
For the compound `Cc1cc(NC2CCCC2)nc(Nc2cc3c(c(OCCCN4CCCC4)c2)OCC3)n1` [Compound 116, N4-cyclopentyl-6-methyl-N2-[7-(3-pyrrolidin-1-ylpropoxy)-2,3-dihydrobenzofuran-5-yl]pyrimidine-2,4-diamine], the figures for the IC50 at human EHMT1 982-1266, with H3K9me2 in HCT116 cells and at human EHMT2 913-1193 were 500 to 2000 nM, above 2000 nM and above 2000 nM, respectively.
On to `Cc1cc(NC2CCCCC2)nc(Nc2cc3c(c(OCCCN4CCCC4)c2)OCC3)n1` [Compound 117, N4-cyclohexyl-6-methyl-N2-[7-(3-pyrrolidin-1-ylpropoxy)-2,3-dihydrobenzofuran-5-yl]pyrimidine-2,4-diamine], for which the half-inhibitory concentration (IC50) on human EHMT1 982-1266 was 500 to 2000 nM; with H3K9me2 in HCT116 cells, above 2000 nM; at human EHMT2 913-1193, above 2000 nM.
Regarding `Cc1cc(NC2CCC2)nc(Nc2cc3c(c(OCCCN4CCCC4)c2)OCC3)n1` [Compound 119, N4-cyclobutyl-6-methyl-N2-[7-(3-pyrrolidin-1-ylpropoxy)-2,3-dihydrobenzofuran-5-yl]pyrimidine-2,4-diamine], the IC50 is 500 to 2000 nM at human EHMT1 982-1266, 500 to 2000 nM in the experiment on H3K9me2 in HCT116 cells and above 2000 nM on human EHMT2 913-1193.
Regarding `CNc1cc(C)nc(Nc2cc(OCCCN3CCCC3)c3oc(=O)[nH]c3c2)n1` [Compound 124, 5-[[4-methyl-6-(methylamino)pyrimidin-2-yl]amino]-7-(3-pyrrolidin-1-ylpropoxy)-3H-1,3-benzoxazol-2-one], the IC50 is 100 to 500 nM at human EHMT1 982-1266, above 2000 nM in the experiment with H3K9me2 in HCT116 cells and above 2000 nM on human EHMT2 913-1193.
`CNc1cc(C)nc(Nc2cc3c(c(N4CCCNCC4)c2)OCC3)n1` [Compound 125, N2-[7-(1,4-diazepan-1-yl)-2,3-dihydrobenzofuran-5-yl]-N4,6-dimethyl-pyrimidine-2,4-diamine]: the half-maximal inhibitory concentration (IC50) at human EHMT1 982-1266, in the experiment on H3K9me2 in HCT116 cells and on human EHMT2 913-1193 was 500 to 2000 nM each time.
As for `CNc1cc(C)nc(Nc2cc3c(c(N4CCCN(C)CC4)c2)OCC3)n1` [Compound 126, N4,6-dimethyl-N2-[7-(4-methyl-1,4-diazepan-1-yl)-2,3-dihydrobenzofuran-5-yl]pyrimidine-2,4-diamine], the IC50 on human EHMT1 982-1266, in the experiment with H3K9me2 in HCT116 cells and on human EHMT2 913-1193 was 500 to 2000 nM in each case.
Regarding `CNc1cc(C)nc(Nc2cc(OCCCN3CCCC3)c3c(c2)N(Cc2ccccc2)CCO3)n1` [Compound 127, N2-[4-benzyl-8-(3-pyrrolidin-1-ylpropoxy)-2,3-dihydro-1,4-benzoxazin-6-yl]-N4,6-dimethyl-pyrimidine-2,4-diamine], the figures for the IC50 at human EHMT1 982-1266, with H3K9me2 in HCT116 cells and on human EHMT2 913-1193 were 100 to 500 nM, 500 to 2000 nM and 500 to 2000 nM, respectively.
`CNc1cc(C)nc(Nc2cc3c(c(N4C[C@H]5CNC[C@H]5C4)c2)OCC3)n1` [Compound 128, N4,6-dimethyl-N2-[7-[rac-(3aS,6aR)-2,3,3a,4,6,6a-hexahydro-1H-pyrrolo[3,4-c]pyrrol-5-yl]-2,3-dihydrobenzofuran-5-yl]pyrimidine-2,4-diamine]: the IC50 at human EHMT1 982-1266 was 500 to 2000 nM; in the experiment on H3K9me2 in HCT116 cells, 500 to 2000 nM; at human EHMT2 913-1193, above 2000 nM.
As to `CNc1cc(C)nc(Nc2cc3c(c(OCCCN4CCCC4)c2)OCCN3)n1` [Compound 136], the figures for the IC50 at human EHMT1 982-1266, in the experiment on H3K9me2 in HCT116 cells and on human EHMT2 913-1193 were 100 to 500 nM, 500 to 2000 nM and above 2000 nM, respectively.
The matching figures for `CNc1cc(C)nc(Nc2cc3c(c(C4=CCN(C)CCC4)c2)OCO3)n1` [Compound 141, N4,6-dimethyl-N2-[7-(1-methyl-2,3,4,7-tetrahydroazepin-5-yl)-1,3-benzodioxol-5-yl]pyrimidine-2,4-diamine]: below 100 nM, below 100 nM and 100 to 500 nM.
Taken in the same sequence, the figures for `CNc1cc(C)nc(Nc2cc3c(c(C4=CCN(CCOC)CCC4)c2)OCO3)n1` [Compound 145, N2-[7-[1-(2-methoxyethyl)-2,3,4,7-tetrahydroazepin-5-yl]-1,3-benzodioxol-5-yl]-N4,6-dimethyl-pyrimidine-2,4-diamine] were 500 to 2000 nM, 100 to 500 nM and above 2000 nM.

The values above are taken from US20240368139A1, “NOVEL MODULATORS OF EHMT1 AND EHMT2 AND THERAPEUTIC USE THEREOF” (Tango Therapeutics, Inc., priority 2021, published 2024).
